From patent publication US8975415B2, “Chromane compounds” (CoMentis, Inc., priority 2012, dated 2015)

What was measured:
[1] = biological target: T1, BACE1 (Homo sapiens (Human), UniProt P56817); experiment: Measurement of Aβ production inhibition in cell (SK-N-BE(2) neuroblastoma cells, Aβ40 ELISA); details: SK-N-BE(2) cells, 6 hours
Target sequence in this assay (P56817 46-501): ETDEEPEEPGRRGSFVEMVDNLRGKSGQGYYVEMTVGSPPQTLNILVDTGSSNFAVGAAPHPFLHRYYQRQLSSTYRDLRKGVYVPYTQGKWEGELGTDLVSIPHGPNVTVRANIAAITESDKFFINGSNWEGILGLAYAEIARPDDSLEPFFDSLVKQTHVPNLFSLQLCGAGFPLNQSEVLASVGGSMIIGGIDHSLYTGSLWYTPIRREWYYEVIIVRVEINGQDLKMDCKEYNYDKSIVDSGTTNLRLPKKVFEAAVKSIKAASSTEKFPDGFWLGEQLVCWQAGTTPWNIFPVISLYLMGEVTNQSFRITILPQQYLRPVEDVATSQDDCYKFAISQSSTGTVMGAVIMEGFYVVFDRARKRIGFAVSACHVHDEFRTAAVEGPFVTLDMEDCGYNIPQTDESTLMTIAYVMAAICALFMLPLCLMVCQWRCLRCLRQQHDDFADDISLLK
Experimental: The potency of compounds against BACE1 activity was determined in a cellular assay of Aβ production. […] Test compounds were dissolved in dimethyl sulfoxide and diluted with dimethyl sulfoxide and put into RPMI1640/5% FBS/penicillin-streptomycin media (final dimethyl sulfoxide concentration is 0.5%). […] CellTiter-Glo Substrate was dissolved into CellTiter-Glo Buffer and added to the plates in 95 μL/well. After shaking the plates for 2 minutes, the whole sample was transferred into a white 96-well plate and luminescence was measured for ATP quantification as the cell viability. Aβ concentration measured by ELISA was normalized by the viability of the corresponding cells.

[2] = biological target: T1, BACE1; experiment: Measurement of BACE1 inhibition by fluorescence resonance energy transfer (FRET), MCA substrate; details: for IC50: read-out: Test Example 1 IC50, MCA-SEVNLDAEFK(DNP)-NH2 substrate, pH 4.4; for IC50 / Ki: FRET; for Ki: read-out: Test Example 1 BACE1 MCA Ki, MCA substrate
Target sequence in this assay (P56817 75-416): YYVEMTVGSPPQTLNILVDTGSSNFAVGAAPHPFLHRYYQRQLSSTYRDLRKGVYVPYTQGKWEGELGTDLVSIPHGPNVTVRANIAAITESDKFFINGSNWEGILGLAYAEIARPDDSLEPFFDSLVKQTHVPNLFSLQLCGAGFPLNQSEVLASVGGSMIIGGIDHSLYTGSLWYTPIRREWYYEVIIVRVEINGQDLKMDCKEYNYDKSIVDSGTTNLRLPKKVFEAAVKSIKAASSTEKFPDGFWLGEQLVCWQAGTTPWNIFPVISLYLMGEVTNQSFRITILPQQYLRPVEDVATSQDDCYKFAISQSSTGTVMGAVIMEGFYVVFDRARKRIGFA

[3] = Test Example 3 IC50, Aβ40 production

| Structure (SMILES) | IC50 [2] [nM] | further results |
| --- | --- | --- |
| CC1(C)Oc2ccc(-c3cc(F)cc(F)c3)cc2C2(COC(N)=N2)C12COC2 (stereo not shown) [RP 147] | 621 | IC50 [1, 3]: 170 nM |
| COc1cccc(-c2ccc3c(c2)C2(COC(N)=N2)C2(COC2)C2(CCC2)O3)c1F (stereo not shown) [RP 137] | 773 | IC50 [1, 3]: 830 nM |
| CC1(C)Oc2ccc(-c3cc(F)cc(Cl)c3)cc2C2(COC(N)=N2)C12COC2 (stereo not shown) [RP 146, 6′-(3-chloro-5-fluorophenyl)-2′,2′-dimethyldispiro[1,3-oxazole-4,4′-chromene-3′,3″-oxetan]-2-amine] | 226 | IC50 [1, 3]: 210 nM; Ki [2]: 188 nM |
| Cc1ncccc1-c1ccc2c(c1)C1(COC(N)=N1)C1(COC1)C1(CCC1)O2 (stereo not shown) [RP 74] | 35400 | – |
| Cc1cnc(Cl)c(-c2ccc3c(c2)C2(COC(N)=N2)C2(COC2)C(C)(C)O3)c1 (stereo not shown) [RP 151] | 1360 | IC50 [1, 3]: 280 nM |
| COc1cncc(-c2ccc3c(c2)C2(COC(N)=N2)C2(COC2)C2(CCC2)O3)c1 (stereo not shown) [RP 72] | 817 | IC50 [1, 3]: 68 nM |
| NC1=NC2(CO1)c1cc(-c3cccc(F)c3F)ccc1OC1(CCC1)C21COC1 (stereo not shown) [RP 138] | 1670 | IC50 [1, 3]: 1500 nM |
| CCOc1cc(F)cc(-c2ccc3c(c2)C2(COC(N)=N2)C2(COC2)C2(CCC2)O3)c1 (stereo not shown) [RP 133] | 1670 | IC50 [1, 3]: 2800 nM |
| NC1=NC2(CO1)c1cc(-c3cc(F)ccc3F)ccc1OC1(CCC1)C21COC1 (stereo not shown) [RP 130] | 1870 | IC50 [1, 3]: 1700 nM |
| NC1=NC2(CO1)c1cc(-c3cccnc3F)ccc1OCC21CC1 (stereo not shown) [RP 103] | 2190 | IC50 [1, 3]: 450 nM |
| N#Cc1cc(-c2ccc3c(c2)C2(COC(N)=N2)C2(COC2)C2(CCC2)O3)ccc1F (stereo not shown) [RP 134] | 3630 | – |
| N#C/C=C/c1cccc(-c2ccc3c(c2)C2(COC(N)=N2)C2(COC2)C2(CCC2)O3)c1 (stereo not shown) [RP 132] | 2450 | IC50 [1, 3]: 1200 nM |
| NC1=NC2(CO1)c1cc(-c3cncc(C#CC4CC4)c3)ccc1OC1(CCC1)C21COC1 (stereo not shown) [RP 48, 6′-[5-(cyclopropylethynyl)pyridin-3-yl]trispiro[cyclobutane-1,2′ chromene-4′,4″-[1,3]oxazole-3′,3′″-oxetan]-2″-amine] | 1130 | IC50 [1, 3]: 690 nM |
| CC1CC=C(c2ccc3c(c2)C2(COC(N)=N2)C2(COC2)C(C)(C)O3)CC1 (stereo not shown) [RP 166] | 3630 | – |
| NC1=NC2(CO1)c1cc(Br)ccc1OCC21COC1 (stereo not shown) [RP 2] | 59600 | – |
| CC1(C)Oc2ccc(-c3cccc(OCC(F)(F)F)c3)cc2C2(COC(N)=N2)C12COC2 (stereo not shown) [RP 143] | 1260 | – |
| CC1(C)Oc2ccc(NC(=O)c3ncc(Cl)cc3F)cc2C2(COC(N)=N2)C12COC2 (stereo not shown) [Example 30] | – | IC50 ([1]; read-out: Test Example 3 IC50, Aβ40 production): 2.3 nM; Ki [2]: 51.5 nM |
| NC1=NC2(CO1)c1cc(NC(=O)c3ncc(Br)cn3)ccc1OCC21CC1 (stereo not shown) [RP 189] | 661 | IC50 [1, 3]: 43 nM; Ki [2]: 623 nM |
| COc1cccc(-c2ccc3c(c2)C2(COC(N)=N2)C2(COC2)C2(CCC2)O3)c1 (stereo not shown) [RP 126] | 696 | IC50 [1, 3]: 1200 nM |
| N#Cc1ccc(C(=O)Nc2ccc3c(c2)C2(COC(N)=N2)C2(CC2)CO3)nc1 (stereo not shown) [RP 196] | 380 | IC50 [1, 3]: 53 nM; Ki [2]: 342 nM |
| COc1cc(-c2ccc3c(c2)C2(COC(N)=N2)C2(COC2)C2(CCC2)O3)c(F)cn1 (stereo not shown) [RP 122] | 2740 | IC50 [1, 3]: 1100 nM |
| NC1=NC2(CO1)c1cc(-c3ccc(F)nc3)ccc1OC1(CCC1)C21COC1 (stereo not shown) [RP 119] | 3560 | – |

| Structure (SMILES) | IC50 [2] [nM] | further results |
| --- | --- | --- |
| NC1=NC2(CO1)c1cc(-c3cncnc3)ccc1OC(C1CC1)C21COC1 (stereo not shown) [RP 89] | 4670 | – |
| CC#Cc1ccnc(-c2ccc3c(c2)C2(COC(N)=N2)C2(COC2)CO3)c1 (stereo not shown) [RP 56] | – | IC50 [1, 3]: 740 nM |
| N#Cc1cccc(-c2ccc3c(c2)C2(COC(N)=N2)C2(COC2)C2(CCC2)O3)c1 (stereo not shown) [RP 128] | 1680 | IC50 [1, 3]: 1500 nM |
| CC1(C)Oc2ccc(-c3cccc(C4CC4)c3)cc2C2(COC(N)=N2)C12COC2 (stereo not shown) [RP 140] | 389 | IC50 [1, 3]: 410 nM |
| NC1=NC2(CO1)c1cc(-c3cncc(Cl)c3)ccc1OCC21CC1 (stereo not shown) [RP 107] | 1060 | IC50 [1, 3]: 460 nM |
| NC1=NC2(CO1)c1cc(NC(=O)c3ccc(Cl)cn3)ccc1OCC21CC1 (stereo not shown) [RP 32] | – | Ki [2]: 378 nM |
| CC(C)CC1Oc2ccc(Br)cc2C2(COC(N)=N2)C12COC2 (single isomer, unassigned) [RP 13b] | 19300 | – |
| NC1=NC2(CO1)c1cc(Br)ccc1OC(CCC(F)(F)F)C21COC1 (single isomer, unassigned) [RP 14a] | 19000 | – |
| NC1=NC2(CO1)c1cc(-c3ccccc3F)ccc1OC1(CCC1)C21COC1 (stereo not shown) [RP 124] | 3590 | – |
| COc1cc(-c2ccc3c(c2)C2(COC(N)=N2)C2(COC2)C(C)(C)O3)c(F)cn1 (stereo not shown) [RP 161] | 1410 | – |
| NC1=NC2(CO1)c1cc(Br)c(F)cc1OCC21CC1 (stereo not shown) [RP 18] | 41300 | – |
| CC1(C)Oc2ccc(-c3cncc(C#N)c3)cc2C2(COC(N)=N2)C12COC2 (stereo not shown) [RP 160] | 981 | – |
| COc1cc(-c2ccc3c(c2)C2(COC(N)=N2)C2(COC2)C(C)(C)O3)c(Cl)cn1 (stereo not shown) [RP 162] | 1040 | – |
| NC1=NC2(CO1)c1cc(-c3cccnc3C(F)(F)F)ccc1OC1(CCC1)C21COC1 (stereo not shown) [RP 212] | 17600 | – |
| NC1=NC2(COC1)c1cc(Br)ccc1OCC21CC1 (stereo not shown) [RP 214, 6′-bromo-6″H-dispiro[cyclopropane-1,3′-chromene-4′,3″-[1,4]oxazin]-5″-amine] | 40300 | – |
| CC(C)CC1Oc2ccc(Br)cc2C2(COC(N)=N2)C12COC2 (single isomer, unassigned) [RP 13a] | 11100 | – |
| NC1=NC2(CO1)c1cc(Br)ccc1OCC21CCCO1 (single isomer, unassigned) [RP 1a, 6′-bromo-4,5-dihydro-3H-dispiro[furan-2,3′-chromene-4′,4″-[1,3]oxazol]-2″-amine] | 73300 | – |
| CC1(C)Oc2ccc(-c3ccnc(Cl)c3Cl)cc2C2(COC(N)=N2)C12COC2 (stereo not shown) [RP 159] | 2120 | – |
| NC1=NC2(c3cc(Br)ccc3OCC23CC3)c2cccc(F)c21 (stereo not shown) [RP 40, 6′-bromo-4″-fluorodispiro[cyclopropane-1,3′-chromene-4′,1″-isoindol]-3″-amine] | 46900 | – |
| NC1=NC2(CO1)c1cc(Nc3ccccn3)ccc1OCC21COC1 (stereo not shown) [RP 25] | 36900 | – |
| CCCC1Oc2ccc(Br)cc2C2(C=C(N)OC2)C12COC2 (single isomer, unassigned) [RP 11b] | 17400 | – |
| CCC/C=C/c1ccc2c(c1)C1(COC(N)=N1)C1(COC1)C(C)(C)O2 (stereo not shown) [RP 167] | 869 | – |

| Structure (SMILES) | IC50 [2] [nM] | further results |
| --- | --- | --- |
| NC1=NC2(CO1)c1cc(Br)ccc1OC(C1CC1)C21COC1 (single isomer, unassigned) [RP 12b] | 81300 | – |
| NC1=NC2(CO1)c1cc(-c3ccc(F)nc3F)ccc1OC1(CCC1)C21COC1 (stereo not shown) [RP 121] | 3370 | – |
| NC1=NC2(CO1)c1cc(Br)ccc1OCC21CC1 (stereo not shown) [RP 17] | 30200 | – |
| NC1=NC2(CO1)c1cc(Br)ccc1OC(CCC(F)(F)F)C21COC1 (single isomer, unassigned) [RP 14b] | 44200 | – |
| CCC1Oc2ccc(Br)cc2C2(COC(N)=N2)C12COC2 (single isomer, unassigned) [RP 9a] | 17300 | – |
| CCC1Oc2ccc(Br)cc2C2(COC(N)=N2)C12COC2 (single isomer, unassigned) [RP 9b] | 24400 | – |
| NC1=NC2(CO1)c1cc(Br)ccc1OC(C1CC1)C21COC1 (single isomer, unassigned) [RP 12a] | 38700 | – |
| NC1=NC2(CO1)c1cc(-c3ccccc3)ccc1OC1(CCC1)C21COC1 (stereo not shown) [RP 123] | 3390 | – |
| NC1=NC2(CO1)c1cc(Br)ccc1OC1(CCC1)C21COC1 (stereo not shown) [RP 3] | 33800 | – |
| CC1(C)Oc2ccc(C3=CCCCCC3)cc2C2(COC(N)=N2)C12COC2 (stereo not shown) [RP 165] | 760 | – |
| CCCC1Oc2ccc(Br)cc2C2(C=C(N)OC2)C12COC2 (single isomer, unassigned) [RP 11a] | 15600 | – |
| CCSc1cccc(-c2ccc3c(c2)C2(COC(N)=N2)C2(COC2)C(C)(C)O3)c1 (stereo not shown) [RP 145] | 933 | – |
| NC1=NC2(CO1)c1cc(Br)ccc1OCC21CC(F)(F)C1 (stereo not shown) [RP 188] | 50600 | – |
| NC1=NC2(CO1)c1cc(-c3cncnc3)ccc1OCC21CCCO1 (stereo not shown) [RP 98] | 64100 | – |
| Cc1cccc(CCc2ccc3c(c2)C2(COC(N)=N2)C2(COC2)CO3)c1 (stereo not shown) [RP 38] | 17300 | – |
| NC1=NC2(CO1)c1cc(Br)ccc1OCC21CCC1 (stereo not shown) [RP 8] | 61300 | – |
| NC1=NC2(CO1)c1cc(Br)ccc1OCC21CCCO1 (single isomer, unassigned) [RP 1b, 6′-bromo-4,5-dihydro-3H-dispiro[furan-2,3′-chromene-4′,4″-[1,3]oxazol]-2″-amine] | 138000 | – |
| NC1=NC2(c3cc(Br)ccc3OCC23CC3)C(F)(F)CO1 (stereo not shown) [RP 216, 6′-bromo-5″,5″-difluoro-5″,6″-dihydrodispiro[cyclopropane-1,3′-chromene-4′,4″-[1,3]oxazin]-2″-amine] | 55800 | – |
| CC1(C)Oc2ccc(-c3cncnc3)cc2C2(COC(N)=N2)C12COC2 (single isomer, unassigned) [RP 51a, 2′,2′-dimethyl-6′-(pyrimidin-5-yl)dispiro[1,3-oxazole-4,4′-chromene-3′,3″-oxetan]-2-amine] | 48600 | – |
| NC1=NC2(COC1)c1cc(Br)ccc1OCC21COC1 (stereo not shown) [RP 114, 6′-bromo-6H-dispiro[1,4-oxazine-3,4′-chromene-3′,3″-oxetan]-5-amine] | 68300 | – |
| COCCCc1ccc2c(c1)C1(COC(N)=N1)C1(COC1)CO2 (stereo not shown) [RP 35] | 26000 | – |
| COc1cnc(C(=O)Nc2ccc3c(c2)C2(COC(N)=N2)C2(COC2)C(C)(C)O3)cn1 (stereo in doubt) [Example 229a, N-[(4S)-2-amino-2′,2′-dimethyldispiro[1,3-oxazole-4,4′-chromene-3′,3″-oxetan]-6′-yl]-5-methoxypyrazine-2-carboxamide] | – | inhibition at 30 µM ([2]; read-out: Test Example 1 inhibition): 47.6% |
